Reference: PubChem BioAssay AID434941 (Johns Hopkins Ion Channel Center, 2010)

Target: Short transient receptor potential channel 4 (Mus musculus) (UniProt Q9QUQ5)
Test: TRPC4 positive allosteric modulators, dose response, cell-based, HEK293 TRPC4/mu-opioid, Fluo-4 calcium, EC20 DAMGO (AID 434941);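 further: calcium entry triggered by an EC20 dose of DAMGO at the co-expressed mu-opioid receptor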
Conditions: HEK293 TRPC4/mu-opioid cells, Fluo-4 calcium fluorescence

Sequence of Short transient receptor potential channel 4 (Mus musculus) (Q9QUQ5 whole entry, looked up): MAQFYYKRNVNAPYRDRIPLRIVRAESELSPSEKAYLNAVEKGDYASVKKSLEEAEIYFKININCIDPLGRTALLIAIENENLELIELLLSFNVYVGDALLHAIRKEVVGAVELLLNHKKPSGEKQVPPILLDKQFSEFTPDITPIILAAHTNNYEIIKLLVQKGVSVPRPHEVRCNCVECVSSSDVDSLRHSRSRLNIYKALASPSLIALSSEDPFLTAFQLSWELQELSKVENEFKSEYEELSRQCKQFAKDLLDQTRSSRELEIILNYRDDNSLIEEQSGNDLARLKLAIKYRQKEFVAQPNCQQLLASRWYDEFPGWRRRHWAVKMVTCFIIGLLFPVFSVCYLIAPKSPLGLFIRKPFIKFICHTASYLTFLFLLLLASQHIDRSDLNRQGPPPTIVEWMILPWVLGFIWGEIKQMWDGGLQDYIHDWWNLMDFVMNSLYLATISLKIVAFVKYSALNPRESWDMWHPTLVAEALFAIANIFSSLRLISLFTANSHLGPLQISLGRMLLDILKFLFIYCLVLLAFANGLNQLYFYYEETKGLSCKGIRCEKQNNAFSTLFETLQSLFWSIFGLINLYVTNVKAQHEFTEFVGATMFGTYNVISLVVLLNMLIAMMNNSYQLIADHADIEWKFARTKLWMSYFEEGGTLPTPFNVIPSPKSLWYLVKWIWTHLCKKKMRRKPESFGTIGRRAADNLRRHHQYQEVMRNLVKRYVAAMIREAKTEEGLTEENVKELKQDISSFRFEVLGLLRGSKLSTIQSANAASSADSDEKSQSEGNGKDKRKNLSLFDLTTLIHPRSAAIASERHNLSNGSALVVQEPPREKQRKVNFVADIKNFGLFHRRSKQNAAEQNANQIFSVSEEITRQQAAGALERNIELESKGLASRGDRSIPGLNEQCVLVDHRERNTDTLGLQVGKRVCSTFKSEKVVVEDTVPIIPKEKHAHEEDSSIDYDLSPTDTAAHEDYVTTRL

EC50: 5.96 µM
Compound: Cn1c(O)c(/C=N/NC(=O)c2cc3ccccc3cc2O)c2ccccc21
